According to patent US20230017045A1, “PYRIDINE AND PYRIMIDINE CARBOXYLATE HERBICIDES AND METHODS OF USE THEREOF” (Dow AgroSciences LLC, priority 2017, published 2023):
Like-named read-outs stand apart in the source and are kept apart here.

Test system: test plant species
Test: Post-emergent herbicidal activity test (greenhouse, foliar spray, visual growth reduction)
Type: in vivo
Settings: post-emergence, 336 h, 140 g ai/ha
How it was run: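 Greenhouse plants at first–second true leaf stage sprayed overhead at 187 L/ha with compound in acetone/water/isopropanol/DMSO/crop oil/X-77 carrier; controls received solvent blank. Injury rated visually after 14 d on a 0–100% scale versus untreated and control plants, converted to growth reduction.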

[1] = ALOMY: blackgrass (Alopecurus myosuroides), 14 days after application, read-out: Visual Growth Reduction (%) 14 Days After Application, ALOMY
[2] = AMARE: redroot pigweed (Amaranthus retroflexus), 14 days after application, read-out: Visual Growth Reduction (%) 14 Days After Application, AMARE
[3] = AVEFA: wild oat (Avena fatua), 14 days after application, read-out: Visual Growth Reduction (%) 14 Days After Application, AVEFA
[4] = CHEAL: lambsquarters (Chenopodium album), 14 days after application, read-out: Visual Growth Reduction (%) 14 Days After Application, CHEAL
[5] = CIRAR: canada thistle (Cirsium arvense), 14 days after application, read-out: Visual Growth Reduction (%) 14 Days After Application, CIRAR
[6] = CYPES: yellow nutsedge (Cyperus esculentus), 14 days after application, read-out: Visual Growth Reduction (%) 14 Days After Application, CYPES
[7] = DIGSA: crabgrass (Digitaria sanguinalis), 14 days after application, read-out: Visual Growth Reduction (%) 14 Days After Application, DIGSA
[8] = ECHCG: barnyardgrass (Echinochloa crus-galli), 14 days after application, read-out: Visual Growth Reduction (%) 14 Days After Application, ECHCG
[9] = IPOHE: ivy-leaf morning glory (Ipomoea hederacea), 14 days after application, read-out: Visual Growth Reduction (%) 14 Days After Application, IPOHE
[10] = KCHSC: kochia (Bassia scoparia), 14 days after application, read-out: Visual Growth Reduction (%) 14 Days After Application, KCHSC
[11] = ORYSA: rice (Oryza sativa), 14 days after application, read-out: Visual Growth Reduction (%) 14 Days After Application, ORYSA
[12] = SETFA: giant foxtail (Setaria faberi), 14 days after application, read-out: Visual Growth Reduction (%) 14 Days After Application, SETFA
[13] = SORVU: grain sorghum (Sorghum vulgare), 14 days after application, read-out: Visual Growth Reduction (%) 14 Days After Application, SORVU
[14] = STEME: common chickweed (Stellaria media), 14 days after application, read-out: Visual Growth Reduction (%) 14 Days After Application, STEME
[15] = TRZAS: wheat, spring (Triticum aestivum), 14 days after application, read-out: Visual Growth Reduction (%) 14 Days After Application, TRZAS

Compound	pest or weed control at 140 g/ha [1]	pest or weed control at 140 g/ha [2]	pest or weed control at 140 g/ha [3]	pest or weed control at 140 g/ha [4]	pest or weed control at 140 g/ha [5]	pest or weed control at 140 g/ha [6]	pest or weed control at 140 g/ha [7]	pest or weed control at 140 g/ha [8]	pest or weed control at 140 g/ha [9]	pest or weed control at 140 g/ha [10]	pest or weed control at 140 g/ha [11]	pest or weed control at 140 g/ha [12]	pest or weed control at 140 g/ha [13]	pest or weed control at 140 g/ha [14]	pest or weed control at 140 g/ha [15]	also measured
COC(=O)c1nc(-c2ccc(C#N)c(Cl)c2)ccc1Cl [F125, Methyl 3-chloro-6-(3-chloro-4-cyanophenyl) picolinate]	0 to 29%	0 to 29%	0 to 29%	45 to 59%	0 to 29%	0 to 29%	0 to 29%	0 to 29%	30 to 44%	0 to 29%	0 to 29%	0 to 29%	0 to 29%	0 to 29%	0 to 29%	–
O=C(O)c1nc(-c2cc3c(cc2Cl)OC(F)(F)O3)c(F)cc1Cl [F175, 3-Chloro-6-(6-chloro-2,2-difluorobenzo[d] [1,3]dioxol-5-yl)-5-fluoropicolinic acid]	60 to 74%	95 to 100%	60 to 74%	95 to 100%	85 to 94%	0 to 29%	95 to 100%	85 to 94%	95 to 100%	85 to 94%	45 to 59%	85 to 94%	95 to 100%	0 to 29%	85 to 94%	–
COC(=O)c1nc(-c2ccc(F)cc2Cl)ccc1Cl [F37, Methyl 3-chloro-6-(2-chloro-4-fluorophenyl) picolinate]	0 to 29%	85 to 94%	0 to 29%	60 to 74%	0 to 29%	0 to 29%	0 to 29%	0 to 29%	75 to 84%	0 to 29%	0 to 29%	0 to 29%	75 to 84%	0 to 29%	0 to 29%	–
COC(=O)c1nc(-c2ccc3ccsc3c2F)ccc1Cl [F260, Methyl 3-chloro-6-(7-fluorobenzo[b]thiophen-6-yl) picolinate]	–	–	–	–	–	–	–	0 to 29%	0 to 29%	0 to 29%	0 to 29%	0 to 29%	0 to 29%	0 to 29%	0 to 29%	pest or weed control at 140 g/ha (blackgrass (Alopecurus myosuroides), 14 Days After Application, read-out: Visual Growth Reduction (%) ALOMY): 0 to 29%; pest or weed control at 140 g/ha (canada thistle (Cirsium arvense), 14 Days After Application, read-out: Visual Growth Reduction (%) CIRAR): 0 to 29%; pest or weed control at 140 g/ha (crabgrass (Digitaria sanguinalis), 14 Days After Application, read-out: Visual Growth Reduction (%) DIGSA): 0 to 29%; pest or weed control at 140 g/ha (lambsquarters (Chenopodium album), 14 Days After Application, read-out: Visual Growth Reduction (%) CHEAL): 0 to 29%; pest or weed control at 140 g/ha (redroot pigweed (Amaranthus retroflexus), 14 Days After Application, read-out: Visual Growth Reduction (%) AMARE): 0 to 29%; pest or weed control at 140 g/ha (wild oat (Avena fatua), 14 Days After Application, read-out: Visual Growth Reduction (%) AVEFA): 0 to 29%; pest or weed control at 140 g/ha (yellow nutsedge (Cyperus esculentus), 14 Days After Application, read-out: Visual Growth Reduction (%) CYPES): 0 to 29%
COC(=O)c1nc(-c2cnc(C(F)(F)F)cc2Cl)ccc1Cl [F194, Methyl 4′,5-dichloro-6′-(trifluoromethyl)-[2,3′-bipyridine]-6-carboxylate]	0 to 29%	0 to 29%	0 to 29%	30 to 44%	75 to 84%	0 to 29%	0 to 29%	45 to 59%	95 to 100%	0 to 29%	0 to 29%	0 to 29%	45 to 59%	0 to 29%	0 to 29%	–
